Measurements reported in publication PMC4580985, “Calcium ions open a selectivity filter gate during activation of the MthK potassium channel” (Nature Communications, 2015).

target: T1, MthK (Methanothermobacter thermautotrophicus, UniProt O27564); assay: stopped-flow Tl+ flux (ANTS quench) in MthK liposomes, blocker equilibration time course; type: biochemical; details: read-out: KD^ap
T1 construct: MthK channel with pore and cytosolic gating ring (RCK), purified in decyl maltoside, Superdex 200, reconstituted in DOPC:POPG 3:1 liposomes
Excerpt: stopped-flow Tl+ flux (ANTS quench) in MthK liposomes, blocker equilibration time course on MthK

Kd [µM] | Structure (SMILES)
2.1 ± 0.2 | CCCCC[N+](CCCCC)(CCCCC)CCCCC [TPeA]
2.6 ± 0.4 | CCCC[N+](CCCC)(CCCC)Cc1ccc(Br)cc1 [Br-bTBA, 4-bromobenzyltributylammonium bromide]
0.7 ± 0.2 | CCCC[N+](CCCC)(CCCC)Cc1ccc(C(=O)c2ccccc2)cc1 [bbTBA, N-(4-[benzoyl]benzyl)-N,N,N-tributylammonium]
